Laboratory results as given in paper PMC6362038, “Secondary structures and cell-penetrating abilities of arginine-rich peptide foldamers” (Scientific Reports, 2019).
Peptide text beside a SMILES is read from it. * marks the point of attachment. 5FAM = O=C1OC2(c3ccc(O)cc3Oc3cc(O)ccc32)c2ccc(C(=O)*)cc21

Assays:
[1] = Resistance to protease digestion with trypsin; assay type: in vitro ADME; conditions: 10 µM peptide in 2.5 × 10^−6 w/v% trypsin/PBS, 37 °C, RP-HPLC, α-CHCA internal standard, read-out: intact peptide after incubation with trypsin
Excerpt: (§1) Next, we examined the stability of peptides against protease digestion using trypsin (Fig. 4a) and pronase (Fig. 4b). One of the advantages of peptide foldamers containing dAAs is their high resistance to degradation by proteases[38]–[40]. Trypsin is a serine protease that cleaves amide bonds at the C terminus of cationic amino acids such as Arg and lysine. Pronase is a non-specific protease mixture produced in the culture supernatant of Streptomyces griseus. Ac5c, Ac5c^dOM, (αMe)Leu, and Leu peptides were incubated with trypsin or pronase for 1, 2, and 4 h, and then rate of intact peptide was evaluated by RP-HPLC using α-cyano-4-hydroxycinnamic acid (α-CHCA) as an internal standard. Leu peptide was promptly degraded by both trypsin and pronase, and reached 0% intact peptide after 4 h incubation in a similar manner to Arg peptide reported previously[24],[25]. On the other hand, approximately 80% of Ac5c, Ac5c^dOM, and (αMe)Leu peptides remained intact even after 4 h incubation. Introduction of dAAs into peptides markedly elevated resistance to protease digestion, whether or not peptides formed stable helical structures. In other words, peptides composed of only natural α-amino acids were easily degraded by proteases independently of their peptide secondary structures.
(§2) One-hundred microliters of peptide solution (10 µM) in 2.5 × 10^−6 w/v% trypsin or pronase/phosphate buffer saline (PBS) was incubated at 37 °C for 0, 1, 2, and 4 h. After each incubation time, 250 µL of 1% TFA/PBS solution was added to inactivate the proteases, and 50 µL of 1/2 diluted saturated α-CHCA solution was added as an internal standard, followed by HPLC analysis, which was performed using the above-mentioned conditions.

[2] = Circular dichroism, R value of secondary structure; assay type: physicochemical; conditions: CD, peptide 24 µM
Protocol: The conformations of peptides were analyzed by circular dichroism (CD) in pH 7.3 4-(2-hydroxyethyl)-1-piperazineethanesulfonic acid (HEPES) buffer (Fig. 3a), 40% 2,2,2-trifluoroethanol (TFE)/pH 7.3 HEPES buffer (Fig. 3b), and 75% TFE/pH 7.3 HEPES buffer (Fig. 3c). Negative maxima at 205–209 nm (π → π*) and 222–225 nm (n → π*) were diagnostic of a right-handed (P) helical structure[31]–[33]. The ratio of R (θπ → π*/θn → π*) has been used as a parameter to distinguish an α-helical structure from a 3_10-helical structure (i.e., R ≈ 1: α-helix; R < 0.4: 3_10-helix) (Table S1)[34],[35]. Helical content (helicity) of peptides was estimated from the intensity of θn → π* values. A negative maximum at 195–200 nm (π → π*) and a weak positive maximum at 217 nm (n → π*) were diagnostic of a random coil structure. […] By adding TFE to HEPES buffer, (αMe)Leu peptide formed a complete right-handed (P) helical structure in a mixture of α- and 3_10-helices (R = 0.57 and 0.56 in Figs 3b and […], respectively). The dominant structures of Ac5c and Leu peptides changed by increased the rate of TFE to eventually be α-/3_10-helices (R = 0.52) and 3_10-helix (R = 0.30), respectively (Fig. 3c). […] Cbz-[L-Leu-L-Leu-(S,S)-Ac5c^dOM]3-OMe was reported to form a right-handed (P) helical structure in 50% TFE/H2O[37]. L-Leu might contribute to stabilization of the peptide helical secondary structure as well as (S,S)-Ac5c^dOM. Destabilization of the peptide helical secondary structure by L-Arg might be stronger than stabilization of it by (S,S)-Ac5c^dOM. Taken together with the results of CD spectra (Fig. 3), in which helicity of peptides was estimated from the intensity of θn → π* values, stability in the helicity of the peptides in the current study was as follows: (αMe)Leupeptide>Ac5cpeptide≈Leupeptide>Ac5c^dOMpeptide≈Argpeptide.
Figure 3 CD spectra of peptides in (a) HEPES buffer, (b) 40% TFE/HEPES buffer, and (c) 75% TFE/HEPES buffer. Peptide concentration: 24 µM.
Optical rotation [α]^rtD was measured using a Jasco DIP-370 polarimeter (JASCO, Tokyo, Japan) using a 0.5 dm cell. Infrared (IR) spectra were recorded using a Shimadzu IR Affinity-1 spectrometer (Shimadzu Corporation, Kyoto, Japan) for conventional measurement (KBr). CD spectra were recorded using a Jasco J-720W spectropolarimeter (JASCO) with a 1.0 mm path length cell. ^1H NMR (400 MHz) and ^13C NMR (100 MHz) spectra were determined using a JEOL AL 400 spectrometer (JEOL Ltd, Tokyo, Japan). Fast atom bombardment (FAB)-MS was measured using a JEOL JMS-700N (JEOL). MALDI-TOF-MS spectra were recorded using a Bruker Ultrax spectrometer (Bruker Daltonics, Fermont, CA). Piperidine was purchased from Tokyo Chemical Industry Co., Ltd. (Tokyo, Japan). Fmoc-L-Arg(Pbf)-OH, Fmoc-Gly-OH, Fmoc-L-Leu-OH, and CLEAR-Amide resin were purchased from the Peptide Institute., Inc. (Osaka, Japan). Fmoc-(S)-(αMe)Leu-OH was obtained from Nagase & Co., Ltd. (Kyoto, Japan). Fmoc-Ac5c-OH was purchased from Watanabe Chemical Industries, Ltd. (Hiroshima, Japan). HATU, HBTU, HOAt, and HOBt were from AAPPTec (Louisville, KY). COMU was from Novabiochem (Tokyo, Japan). CF and Dulbecco’s modified Eagle’s medium (DMEM) were obtained from Sigma-Aldrich Co. (St. Louis, MO). diisopropylethylamine (DIPEA) and heparin were purchased from Wako Pure Chemicals Co., Inc. (Osaka, Japan). Diethyl ether was from Kanto Chemical Co., Inc. (Tokyo, Japan). Trifluoroacetic acid (TFA) was obtained from Nacalai Tesque, Co., Inc. (Kyoto, Japan). Hoechst 33342 and a Cell counting kit-8 were purchased from Dojindo Laboratories (Kumamoto, Japan). LysoTracker Red was from Molecular Probes (Eugene, OR).
Table S1. R values (qπ → π*/qn → π*) of synthetic peptides.
R value (qπ → π*/qn → π* )
HEPES 40% TFE/HEPES 75% TFE/HEPES

[3] = Resistance to protease digestion with pronase; assay type: in vitro ADME, Streptomyces griseus; conditions: 10 µM peptide in 2.5 × 10^−6 w/v% pronase/PBS, 37 °C, RP-HPLC, α-CHCA internal standard, read-out: intact peptide after incubation with pronase
Excerpt: as §1, §2

HeLa cells [4] = test: Cellular uptake of CF-labeled peptides into HeLa cells (flow cytometry); assay type: cell-based; conditions: 1 µM peptide, 2, 6 and 24 h, DMEM 10% FBS, heparin wash, trypsinized, flow cytometry fluorescence, mean of n = 3
Protocol: Cellular uptake of peptides was assessed against HeLa (Fig. 5a) and CHO-K1 cells (Fig. 5b) at a concentration of 1 µM and various incubation times (2, 6, and 24 h). […] Not only stabilities against protease digestion but also other factors might contribute to prolongation of the cell-penetrating ability of peptides. […] The number of Arg residues in Arg-rich peptides is very important for their cell-penetrating ability, and six Arg are not enough. […] Substitution of Arg in Arg peptide with Ac5c, Ac5c^dOM, or (αMe)Leu positively affected its cell-penetrating ability compared with Aib. In comparison, among the peptides containing dAAs, (αMe)Leu peptide was the best for HeLa cell, Ac5c peptide was the best for CHO-K1 cell, and Ac5c^dOM peptide was the worst for both cell types (Fig. 5). Although the best peptides were different depending on cell type, the worst peptide was same for both cell types. […] Taken together, a stable helical structure by introducing dAAs into Arg-rich peptide enhanced their cell-penetrating abilities.
HeLa or CHO-K1 cells were seeded on 24-well culture plates (100,000 cells/well) and incubated in 400 µL of DMEM containing 10% FBS. The medium was then replaced with fresh medium, and a peptide solution was added to each well at a concentration of 1 µM. After each incubation time, the medium was removed and cells were washed with ice-cold PBS with heparin (20 units/mL) and trypsinized. After the addition of medium containing 10% FBS, fluorescence intensity was detected and acquired using an On-chip Flow (On-chip Biotechnologies Co., Ltd, Tokyo, Japan). The results are presented as a mean and standard deviation obtained from 3 samples.

HeLa cells [5] = conditions: 24 h incubation; cited from earlier work
Protocol: Cellular uptake of peptides was assessed against HeLa (Fig. 5a) and CHO-K1 cells (Fig. 5b) at a concentration of 1 µM and various incubation times (2, 6, and 24 h). […] Furthermore, the cellular uptake of Ac5c^dOM peptide increased up t ...

Compound	remaining at 4 h, 10 µM [1]	R value (θπ → π*/θn → π*) ([2]; 40% TFE/pH 7.3 HEPES buffer)	R value (θπ → π*/θn → π*) ([2]; 75% TFE/pH 7.3 HEPES buffer)	R value (θπ → π*/θn → π*) ([2]; pH 7.3 HEPES buffer, R ≈ 1 α-helix, R < 0.4 3_10-helix)	remaining at 4 h, 10 µM [3]	cellular uptake, course over incubation time (HeLa cells [4])	cell-penetrating ability compared with Arg nonapeptide (HeLa cells [5])
CC(C)C[C@H](NC(=O)[C@H](CCCNC(=N)N)NC(=O)[C@H](CCCNC(=N)N)NC(=O)[C@H](CC(C)C)NC(=O)[C@H](CCCNC(=N)N)NC(=O)[C@H](CCCNC(=N)N)NC(=O)[C@H](CC(C)C)NC(=O)[C@H](CCCNC(=N)N)NC(=O)[C@H](CCCNC(=N)N)NC(=O)CNC(=O)c1ccc2c(c1)C(=O)OC21c2ccc(O)cc2Oc2cc(O)ccc21)C(N)=O [Leu peptide] (5FAM-GRRLRRLRRL-NH2)	0%	0.26	0.30	No significant maxima	0%	small decrease	
(L-Arg-L-Arg-Aib)3 [(L-Arg-L-Arg-Aib)3 nonapeptide]							much lower cell-penetrating ability than Arg nonapeptide
